Assay results taken from PMC7774954, “Interactomic affinity profiling by holdup assay: Acetylation and distal residues impact the PDZome-binding specificity of PTEN phosphatase” (PLoS ONE, 2020).
*1 amine or outer side, *2 acyl side, *3 side chain or, on linkers, in order; H or OH if unused. Where a SMILES comes first, the peptide text is derived from it. The star is where a group is joined. X1 = O=C(CCCC[C@@H]1SC[C@@H]2NC(=O)N[C@@H]21)NCCCOCCOCCOCCCN*; Suc = O=C(CCC(=O)[*:2])[*:1]

Tests used:
DLG1-3 = assay: Holdup assay, DLG1-3; format: binding, human
LNX2-1 = assay: Holdup assay, LNX2-1; format: binding, human
MPDZ-11 = MPDZ-11 (Homo sapiens, UniProt O75970); assay: Holdup assay, MPDZ-11; format: binding
SCRIB-3 = target: T1, SCRIB-3 (Homo sapiens, UniProt Q14160); assay: Holdup assay, SCRIB-3; format: binding; settings: for BI: PDZ domain SCRIB-3
T1 construct: Representative holdup data recorded for three PDZ domains (MAST2-1, HTRA1-1, SCRIB-3); made in house; host or cells: E. coli
T1 sequence (Q14160 1004-1093 limits assumed): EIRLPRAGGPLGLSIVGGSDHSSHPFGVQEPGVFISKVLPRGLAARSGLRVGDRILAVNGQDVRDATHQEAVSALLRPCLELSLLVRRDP
Protocol: The holdup assay was performed on a Tecan freedom Evo200 robot with 384-well plates in singlicate for the three 11-mer PTEN variants and the 13-mer PTEN peptide as described in [31, 32]. Briefly, prior to interaction assay, 2.5 μL of streptavidin resin was saturated in each well with 20 μL of biotinylated PBM peptides (42 μM) and then washed twice with an excess of free biotin, while the reference resin was incubated only with biotin. Right before the holdup experiment, the PDZ library was spiked with an internal standard of lysozyme. Then, the biotin- or PBM-saturated resin was incubated, each in a distinct well of a 384-well plate, with complete cell lysates diluted so that the concentration of the tag-PDZ present in the crude extract is adjusted at 4 μM. After a sufficient time to reach complex equilibrium (15 min.), a fast and mild filtration step is performed and the tag-PDZ concentrations were measured by capillary electrophoresis instrument (LabChip GXII, PerkinElmer, Massachusets, USA). Standard markers were used to convert migration time into molecular weight on the LabChip software and inappropriate molecular weight markers were corrected or excluded.
For filtered data, the BI was extracted with the following equation (Eq 1) that estimates the depleted fraction after superimposition of the sample and reference electropherograms: BI=Iref−Ilig/Iref (1) where Iref and Ilig are the intensities of the tag-PDZ peaks measured, for each PDZ domain/PBM peptide interaction pair, in the biotin reference and the PBM electropherograms, respectively.

CARD11-1 = assay: Holdup assay, CARD11-1; format: binding, human
FRMPD2-2 = target: T2, FRMPD2-2 (Homo sapiens, UniProt Q68DX3); assay: Holdup assay, FRMPD2-2; format: binding
T2 sequence (Q68DX3 1-1309): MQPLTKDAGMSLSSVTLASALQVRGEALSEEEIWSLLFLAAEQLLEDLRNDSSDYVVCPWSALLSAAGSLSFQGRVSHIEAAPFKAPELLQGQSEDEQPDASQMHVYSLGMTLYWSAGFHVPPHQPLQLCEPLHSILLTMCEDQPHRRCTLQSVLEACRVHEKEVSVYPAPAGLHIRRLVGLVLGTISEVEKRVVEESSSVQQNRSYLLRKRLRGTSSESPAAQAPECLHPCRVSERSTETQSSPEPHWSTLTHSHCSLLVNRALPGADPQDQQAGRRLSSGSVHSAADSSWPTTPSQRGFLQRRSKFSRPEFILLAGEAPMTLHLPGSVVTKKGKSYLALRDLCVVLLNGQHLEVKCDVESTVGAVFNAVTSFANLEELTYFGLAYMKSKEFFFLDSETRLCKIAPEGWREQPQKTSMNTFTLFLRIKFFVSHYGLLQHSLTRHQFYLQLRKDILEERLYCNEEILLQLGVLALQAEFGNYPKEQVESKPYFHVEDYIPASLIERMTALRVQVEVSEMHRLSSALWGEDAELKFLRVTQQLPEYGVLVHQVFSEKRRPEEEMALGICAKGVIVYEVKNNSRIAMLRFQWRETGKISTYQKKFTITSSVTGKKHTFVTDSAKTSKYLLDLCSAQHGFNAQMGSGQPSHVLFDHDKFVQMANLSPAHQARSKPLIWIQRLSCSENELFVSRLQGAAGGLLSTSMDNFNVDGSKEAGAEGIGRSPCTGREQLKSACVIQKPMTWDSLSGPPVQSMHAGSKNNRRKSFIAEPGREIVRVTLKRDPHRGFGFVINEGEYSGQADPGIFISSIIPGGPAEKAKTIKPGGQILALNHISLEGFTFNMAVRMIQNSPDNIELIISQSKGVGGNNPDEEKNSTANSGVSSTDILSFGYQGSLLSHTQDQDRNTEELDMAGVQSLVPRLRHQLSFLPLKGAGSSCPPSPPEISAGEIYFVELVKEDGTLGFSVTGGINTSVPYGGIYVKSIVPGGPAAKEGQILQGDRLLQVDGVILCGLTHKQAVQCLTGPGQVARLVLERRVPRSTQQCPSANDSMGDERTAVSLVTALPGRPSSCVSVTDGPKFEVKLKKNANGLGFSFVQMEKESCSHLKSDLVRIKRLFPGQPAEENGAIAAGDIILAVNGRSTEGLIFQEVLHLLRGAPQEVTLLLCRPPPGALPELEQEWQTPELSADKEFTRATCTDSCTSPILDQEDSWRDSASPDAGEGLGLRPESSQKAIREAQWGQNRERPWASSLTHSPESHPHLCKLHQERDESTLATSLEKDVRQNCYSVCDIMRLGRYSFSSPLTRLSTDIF

LRRC7-1 = LRRC7-1 (Homo sapiens, UniProt Q96NW7); assay: Holdup assay, LRRC7-1; format: binding
INADL-2 = assay: Holdup assay, INADL-2; format: binding, human
IL16-4 = assay: Holdup assay, IL16-4; format: binding, human
DLG5-4 = assay: Holdup assay, DLG5-4; format: binding, human
APBA2-2 = assay: Holdup assay, APBA2-2; format: binding, human
DVL2-1 = assay: Holdup assay, DVL2-1; format: binding, human

Sequence of LRRC7-1 (Q96NW7 with tags, fused parts or gaps): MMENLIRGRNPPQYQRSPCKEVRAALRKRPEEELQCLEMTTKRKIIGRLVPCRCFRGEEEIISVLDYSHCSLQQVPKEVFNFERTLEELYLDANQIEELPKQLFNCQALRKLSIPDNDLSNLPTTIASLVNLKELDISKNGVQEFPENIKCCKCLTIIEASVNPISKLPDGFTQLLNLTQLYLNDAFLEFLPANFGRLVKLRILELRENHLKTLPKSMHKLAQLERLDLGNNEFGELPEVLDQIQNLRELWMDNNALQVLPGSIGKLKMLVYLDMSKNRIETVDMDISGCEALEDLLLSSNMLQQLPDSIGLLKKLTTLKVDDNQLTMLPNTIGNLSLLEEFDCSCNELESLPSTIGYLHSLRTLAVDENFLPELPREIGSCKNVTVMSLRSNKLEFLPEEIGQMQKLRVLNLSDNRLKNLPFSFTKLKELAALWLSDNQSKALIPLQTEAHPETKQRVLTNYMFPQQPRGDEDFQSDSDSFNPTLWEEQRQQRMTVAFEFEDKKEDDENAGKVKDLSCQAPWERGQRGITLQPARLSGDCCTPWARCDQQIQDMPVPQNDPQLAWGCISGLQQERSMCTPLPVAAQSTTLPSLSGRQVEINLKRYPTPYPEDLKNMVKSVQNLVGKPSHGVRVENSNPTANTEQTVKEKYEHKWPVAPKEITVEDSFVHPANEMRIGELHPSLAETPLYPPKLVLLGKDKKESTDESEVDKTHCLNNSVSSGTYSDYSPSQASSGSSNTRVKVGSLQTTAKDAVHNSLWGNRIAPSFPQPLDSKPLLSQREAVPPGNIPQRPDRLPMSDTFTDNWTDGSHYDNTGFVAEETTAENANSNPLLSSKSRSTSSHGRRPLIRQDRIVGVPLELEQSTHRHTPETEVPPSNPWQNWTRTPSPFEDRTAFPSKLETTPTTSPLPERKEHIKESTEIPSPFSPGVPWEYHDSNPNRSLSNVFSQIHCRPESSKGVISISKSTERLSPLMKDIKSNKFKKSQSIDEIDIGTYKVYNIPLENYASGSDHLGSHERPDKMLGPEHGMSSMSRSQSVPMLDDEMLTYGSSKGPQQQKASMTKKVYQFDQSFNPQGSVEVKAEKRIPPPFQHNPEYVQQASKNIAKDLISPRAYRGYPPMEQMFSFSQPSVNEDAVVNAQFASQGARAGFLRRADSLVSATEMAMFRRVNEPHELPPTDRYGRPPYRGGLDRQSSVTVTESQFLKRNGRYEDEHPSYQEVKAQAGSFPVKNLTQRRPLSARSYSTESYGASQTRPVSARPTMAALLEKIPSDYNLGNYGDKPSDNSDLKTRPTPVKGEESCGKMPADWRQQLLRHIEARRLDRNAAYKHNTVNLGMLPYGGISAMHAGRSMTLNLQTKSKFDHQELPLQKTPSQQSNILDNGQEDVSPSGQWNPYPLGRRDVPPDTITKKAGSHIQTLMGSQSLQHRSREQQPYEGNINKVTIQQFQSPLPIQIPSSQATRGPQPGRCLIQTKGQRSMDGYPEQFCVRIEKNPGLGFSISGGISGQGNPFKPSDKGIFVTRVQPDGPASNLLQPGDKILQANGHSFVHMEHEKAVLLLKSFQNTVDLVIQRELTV
Sequence of MPDZ-11 (O75970 whole entry, the tested form may be a part): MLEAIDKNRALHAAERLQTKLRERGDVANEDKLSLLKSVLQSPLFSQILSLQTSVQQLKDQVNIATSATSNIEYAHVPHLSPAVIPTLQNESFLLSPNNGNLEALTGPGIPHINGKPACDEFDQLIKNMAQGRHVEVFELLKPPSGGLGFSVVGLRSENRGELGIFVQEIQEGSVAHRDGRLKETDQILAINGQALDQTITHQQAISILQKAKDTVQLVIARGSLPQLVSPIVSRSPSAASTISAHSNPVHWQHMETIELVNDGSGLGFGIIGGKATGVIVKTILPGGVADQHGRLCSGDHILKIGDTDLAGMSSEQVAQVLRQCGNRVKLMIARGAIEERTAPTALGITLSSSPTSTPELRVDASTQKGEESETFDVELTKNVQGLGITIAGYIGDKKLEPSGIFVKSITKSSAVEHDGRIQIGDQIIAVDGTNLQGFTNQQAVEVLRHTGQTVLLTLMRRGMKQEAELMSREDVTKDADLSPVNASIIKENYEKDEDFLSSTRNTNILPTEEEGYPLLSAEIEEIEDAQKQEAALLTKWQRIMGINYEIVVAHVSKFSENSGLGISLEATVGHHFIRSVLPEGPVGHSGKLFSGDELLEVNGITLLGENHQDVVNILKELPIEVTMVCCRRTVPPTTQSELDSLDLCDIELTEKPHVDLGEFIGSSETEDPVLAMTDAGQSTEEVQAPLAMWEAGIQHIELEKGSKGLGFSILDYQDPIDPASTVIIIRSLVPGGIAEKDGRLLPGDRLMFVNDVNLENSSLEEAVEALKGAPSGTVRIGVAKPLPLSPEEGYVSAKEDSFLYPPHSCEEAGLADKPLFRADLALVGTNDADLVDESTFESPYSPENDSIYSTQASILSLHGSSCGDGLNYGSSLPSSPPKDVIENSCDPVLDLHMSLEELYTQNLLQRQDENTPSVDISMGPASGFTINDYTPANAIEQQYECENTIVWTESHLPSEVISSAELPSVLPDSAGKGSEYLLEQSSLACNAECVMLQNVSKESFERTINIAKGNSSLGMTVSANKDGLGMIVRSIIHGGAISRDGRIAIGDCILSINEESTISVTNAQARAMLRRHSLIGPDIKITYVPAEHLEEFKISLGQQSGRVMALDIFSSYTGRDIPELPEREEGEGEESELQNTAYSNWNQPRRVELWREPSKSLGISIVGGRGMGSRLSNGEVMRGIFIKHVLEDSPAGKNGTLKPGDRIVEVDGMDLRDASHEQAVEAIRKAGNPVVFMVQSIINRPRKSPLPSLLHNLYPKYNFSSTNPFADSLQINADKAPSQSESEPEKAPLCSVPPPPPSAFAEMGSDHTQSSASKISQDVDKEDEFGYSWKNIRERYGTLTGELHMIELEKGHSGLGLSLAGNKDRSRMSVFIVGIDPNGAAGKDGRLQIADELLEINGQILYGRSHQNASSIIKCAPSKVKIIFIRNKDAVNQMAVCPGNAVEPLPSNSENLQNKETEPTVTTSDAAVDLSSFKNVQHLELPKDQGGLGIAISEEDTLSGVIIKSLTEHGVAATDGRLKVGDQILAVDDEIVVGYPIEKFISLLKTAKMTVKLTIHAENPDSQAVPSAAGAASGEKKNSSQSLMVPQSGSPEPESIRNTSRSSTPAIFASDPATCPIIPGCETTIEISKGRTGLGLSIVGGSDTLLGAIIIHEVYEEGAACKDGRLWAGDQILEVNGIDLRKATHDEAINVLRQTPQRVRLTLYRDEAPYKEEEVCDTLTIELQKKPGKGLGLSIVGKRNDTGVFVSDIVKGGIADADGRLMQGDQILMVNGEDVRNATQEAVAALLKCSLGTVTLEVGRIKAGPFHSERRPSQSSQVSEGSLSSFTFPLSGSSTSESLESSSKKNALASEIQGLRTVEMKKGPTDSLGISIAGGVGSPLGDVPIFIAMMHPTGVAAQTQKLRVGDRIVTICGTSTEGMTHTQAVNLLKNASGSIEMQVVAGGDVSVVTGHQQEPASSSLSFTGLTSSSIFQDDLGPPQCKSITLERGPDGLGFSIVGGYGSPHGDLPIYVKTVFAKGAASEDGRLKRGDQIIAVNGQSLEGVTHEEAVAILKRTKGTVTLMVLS

Compound | BI (DLG1-3) | LogKD (DLG1-3) | BI (LNX2-1) | LogKD (LNX2-1) | BI (MPDZ-11) | LogKD (MPDZ-11) | BI (SCRIB-3) | BI (CARD11-1) | LogKD (CARD11-1) | BI (FRMPD2-2) | Kd (FRMPD2-2) [µM] | BI (LRRC7-1) | LogKD (LRRC7-1) | BI (INADL-2) | BI (IL16-4) | LogKD (IL16-4) | BI (DLG5-4) | LogKD (DLG5-4) | BI (APBA2-2) | LogKD (APBA2-2) | other results
CC[C@H](C)[C@H](NC(=O)[C@H](CCC(N)=O)NC(=O)[C@@H](NC(=O)[C@H](Cc1c[nH]cn1)NC(=O)[C@H](CCC(N)=O)NC(=O)[C@H](CC(=O)O)NC(=O)[C@H](CCC(=O)O)NC(=O)[C@H](CC(=O)O)NC(=O)CCC(=O)NCCCOCCOCCOCCCNC(=O)CCCC[C@@H]1SC[C@@H]2NC(=O)N[C@@H]21)[C@@H](C)O)C(=O)N[C@H](C(=O)N[C@@H](CCCCN)C(=O)N[C@H](C(=O)O)C(C)C)[C@@H](C)O [PTEN_11] | 0.044 | 3.519 | 0.094 | 3.519 | 0.021 | 3.519 | 0.058 | -0.016 | 3.519 | 0.291 | 80 | 0.078 | 3.519 | 0.007 | -0.028 | 3.519 | -0.07 | 3.519 | -0.01 | 3.519 | BI (binding intensity) (SCRIB-3; SCRIB-3, holdup, singlicate): 0.02; LogKD (INADL-2): 3.519; BI (DVL2-1): -0.008; LogKD (DVL2-1): 3.519
CC[C@H](C)[C@H](NC(=O)[C@H](CCC(N)=O)NC(=O)[C@@H](NC(=O)[C@H](Cc1c[nH]cn1)NC(=O)[C@H](CCC(N)=O)NC(=O)[C@H](CC(=O)O)NC(=O)[C@H](CCC(=O)O)NC(=O)[C@H](CC(=O)O)NC(=O)[C@H](Cc1ccccc1)NC(=O)[C@@H]1CCCN1C(=O)CCC(=O)NCCCOCCOCCOCCCNC(=O)CCCC[C@@H]1SC[C@@H]2NC(=O)N[C@@H]21)[C@@H](C)O)C(=O)N[C@H](C(=O)N[C@@H](CCCCN)C(=O)N[C@H](C(=O)O)C(C)C)[C@@H](C)O [PTEN_13] ({X1-Suc}-PFDEDQHTQITKV-OH) | -0.033 | – | -0.046 | – | 0.012 | 3.826 | -0.068 | -0.006 | – | 0.254 | 46.9 | 0.042 | 3.826 | 0.043 | 0.014 | – | -0.028 | – | 0.041 | – | BI (DVL2-1): -0.026
CC[C@H](C)[C@H](NC(=O)[C@H](CCC(N)=O)NC(=O)[C@@H](NC(=O)[C@H](Cc1c[nH]cn1)NC(=O)[C@H](CCC(N)=O)NC(=O)[C@H](CC(=O)O)NC(=O)[C@H](CCC(=O)O)NC(=O)[C@H](CC(=O)O)NC(=O)CCC(=O)NCCCOCCOCCOCCCNC(=O)CCCC[C@@H]1SC[C@@H]2NC(=O)N[C@@H]21)[C@@H](C)O)C(=O)N[C@H](C(=O)N[C@@H](CCCCNC(C)=O)C(=O)N[C@H](C(=O)O)C(C)C)[C@@H](C)O [PTEN_Ac] | -0.088 | 3.605 | 0 | 3.605 | 0.145 | – | -0.053 | -0.116 | 3.605 | 0.574 | 19.1 | -0.028 | 3.605 | – | 0.014 | 3.605 | -0.1 | 3.605 | -0.03 | 3.605 | –
CC[C@H](C)[C@H](NC(=O)[C@H](CCC(N)=O)NC(=O)[C@@H](NC(=O)[C@H](Cc1c[nH]cn1)NC(=O)[C@H](CCC(N)=O)NC(=O)[C@H](CC(=O)O)NC(=O)[C@H](CCC(=O)O)NC(=O)[C@H](CC(=O)O)NC(=O)CCC(=O)NCCCOCCOCCOCCCNC(=O)CCCC[C@@H]1SC[C@@H]2NC(=O)N[C@@H]21)[C@@H](C)O)C(=O)N[C@H](C(=O)N[C@@H](CCCNC(=N)N)C(=O)N[C@H](C(=O)O)C(C)C)[C@@H](C)O [PTEN_KR] ({X1-Suc}-DEDQHTQITRV-OH) | 0.077 | 3.655 | 0.072 | 3.655 | 0.02 | 3.655 | 0.022 | -0.097 | 3.655 | 0.295 | 56.9 | 0.14 | – | 0.064 | 0.002 | 3.655 | -0.107 | 3.655 | -0.002 | 3.655 | LogKD (INADL-2): 3.655; BI (DVL2-1): -0.027; LogKD (DVL2-1): 3.655
